According to patent publication US9517240B2, “Methods and compositions for cancer prevention and treatment” (THE REGENTS OF THE UNIVERSITY OF CALIFORNIA, priority 2006, dated 2016):
“Also recorded” adds a separate entry of the source. Blank lines part the entries; values can stand above or below the molecule they belong to. Peptide text beside a SMILES is read from it. * marks the point of attachment. Cbz = O=C(OCc1ccccc1)*

Legend:
[1] = system: mammary epithelial cells (MECs); assay: Hormone-induced proliferation of mammary epithelial cells in ovariectomized mice (BrdU incorporation); type: in vivo, mouse; conditions: 1 mg progesterone daily for 3 days
Description: MEC proliferation peaks at the estrous phase when progesterone level is highly elevated. To assess the contribution of steroid hormones to MECs proliferation an ovariectomy was performed to deplete circulating estrogen and progesterone. Since PR is one of the downstream target genes of ER, progesterone activity was targeted. Two weeks after ovariectomy mice were treated with progesterone daily for 3 days followed by BrdU pulse labeling. In control vehicle treated mice, no BrdU-positive MECs were found in ovariectomized wt, and p53^Δ5&6 gland, but ducts containing one or two BrdU-positive cells were detected in BRCA1^Δ11p53^Δ5&6 mammary glands (FIG. 2A). Elevated proliferation seen under ovarian hormone depletion is related to the ligand-independent activation of PR in BRCA1-deficient cells. Importantly, a higher number of BrdU-positive MECs was found in BRCA1^Δ11p53^Δ5&6 mammary glands upon exposure to progesterone; ducts containing up to 6 BrdU-positive cells were identified (FIG. 2A).
Two weeks before steroid hormone treatment animals were bilaterally ovariectomized Mammary glands were stimulated to proliferate with daily subcutaneous injections of either 1 μg of estradiol (E2758, Sigma, St. Louis, Mo.) or 1 mg of progesterone (P8783, Sigma, St. Louis, Mo.) for 3 days. Untreated mice were used as controls.

PR-A [2] = molecular target: T1, PR-A (Mus musculus, UniProt Q00175); assay: Determination of PR half-life in MECs with cyclohexamide and R5020; type: cell-based; conditions: 10 nM R5020, 100 μg/ml cyclohexamide
T1 construct: endogenous in cells; host or cells: primary mouse mammary epithelial cells (MECs) from p53 and BRCA1/p53 conditional knockout mammary glands
T1 sequence (Q00175 1-761 isoform Q00175-2): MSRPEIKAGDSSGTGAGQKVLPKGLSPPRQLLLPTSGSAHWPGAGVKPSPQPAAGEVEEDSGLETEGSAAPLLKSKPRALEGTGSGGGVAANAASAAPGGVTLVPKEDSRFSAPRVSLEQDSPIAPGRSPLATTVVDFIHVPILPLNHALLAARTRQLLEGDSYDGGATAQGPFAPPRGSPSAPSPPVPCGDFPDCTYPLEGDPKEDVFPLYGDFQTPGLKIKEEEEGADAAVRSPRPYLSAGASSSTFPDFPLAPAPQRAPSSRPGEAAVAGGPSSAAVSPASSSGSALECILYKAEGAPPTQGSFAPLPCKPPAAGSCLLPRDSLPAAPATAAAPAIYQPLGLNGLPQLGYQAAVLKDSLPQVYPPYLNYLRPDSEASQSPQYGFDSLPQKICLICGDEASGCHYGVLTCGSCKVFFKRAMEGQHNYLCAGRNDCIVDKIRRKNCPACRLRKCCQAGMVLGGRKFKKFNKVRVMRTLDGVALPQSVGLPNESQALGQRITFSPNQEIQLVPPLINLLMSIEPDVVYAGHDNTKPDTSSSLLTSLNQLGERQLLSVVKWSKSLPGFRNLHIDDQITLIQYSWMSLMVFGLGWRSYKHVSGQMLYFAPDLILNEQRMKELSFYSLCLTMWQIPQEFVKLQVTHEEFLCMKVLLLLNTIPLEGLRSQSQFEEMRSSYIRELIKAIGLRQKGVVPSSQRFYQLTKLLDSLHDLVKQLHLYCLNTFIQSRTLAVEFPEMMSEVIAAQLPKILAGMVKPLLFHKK
Description: (§1) MEC cultures from BRCA1^Δ11p53^Δ5&6 and p53^Δ5&6 mammary glands of two-month-old mice when MECs are histologically normal were created. The amount of PR protein, determined by western blotting, was 3-fold higher in BRCA1^Δ11p53^Δ5&6 than in p53^Δ5&6 MECs (FIG. 2D, lanes 1, 3). To further establish that PR protein stability is modulated by a proteasome pathway, MECs were exposing to MG132. PR-A was stabilized in p53^Δ5&6 but not in BRCA1^Δ11p53^Δ5&6 MECs (FIG. 2D, lanes 2, 4).
(§2) One day after plating, proliferating sub-confluent MECs or T47D cells were treated with 10 μM MG132 (BioMol Research Laboratories, Plymouth Meeting, Pa.) for 4 hr. Vehicle DMSO was added to the medium of untreated control cells. For the half-life study, 100 μg/ml of cyclohexamide (Sigma) was used and cells were harvested 0-6 hours after the addition of cyclohexamide. Cells were washed in PBS and protein lysates were prepared as described above.

[3] = system: BRCA1^Δ11p53^Δ5&6 conditional knockout mice (mammary tumors); assay: Pellet implantation and weekly monitoring for mammary tumor formation in BRCA1/p53 deficient mice; type: in vivo, mouse; conditions: 5 mg/60 days constant release pellet
[4] = system: BRCA1^Δ11p53^Δ5&6 conditional knockout mice (mammary tumors); assay: as above; type: in vivo, mouse; conditions: for mammary tumorigenesis / tumor formation (in words): 35 mg/60 day constant release pellet
Description: (§3) As progesterone is a potent mitogen for BRCA1^Δ11p53^Δ5&6 MECs specifically it was tested whether blocking PR signaling by anti-progesterone will prevent or delay mammary carcinogenesis in BRCA1^Δ11p53^Δ5&6 conditional knockout mice. An anti-progesterone pellet containing 35 mg/60 days constant release mifepristone or placebo pellet was implanted into twelve 3- and two 4-month-old mice. Mice were monitored weekly for tumor formation. The median tumor latency of BRCA1^Δ11p53^Δ5&6 conditional knockout mice was 6.6 months (n=25) with complete penetrance (FIG. 4A). All control mice or placebo pellet treated mice developed palpable tumor by 8.7 or 5.2 months of ages (n=4), respectively. […] The effects of on ductal branching and alveolar expansion were determined using mammary gland whole mounts and histological sections. […] Only 33±7 ducts in an approximate area of 0.012 mm^2 were identified in-treated mice while 678±49 ducts were found in placebo pellet-treated mice. Dramatic inhibition of tumorigenesis was also seen with the implantation of 35 mg time release (60 day) pellets of CDB-2914. […] CDB-2914 shares structural similarity with mifepristone and binds competitively to PR with high affinity.
Nulliparous mature BRCA1^Δ11/p53^Δ5&6 female mice, age 14-20 weeks, were anesthetized and pellets containing either 35 mg/60-day constant release of mifepristone (M8046, Sigma, St. Louis, Mo.) or placebo pellets (Innovative Research of America, Sarasota, Fla.) were implanted in the lateral side of the neck. Mice were monitored weekly for mammary tumors.
This Example describes the early administration of Progesterone Receptor antagonists to mice with a BRCA1 mutation to prevent or delay the development of tumors.
An effective development window for prevention treatment has also been shown for RU-486 (data not shown). I would appear that the time window for treatment is important.

[5] = system: BRCA1^Δ11p53^Δ5&6 mammary glands; assay: Mammary gland whole mounts and histological sections: ductal branching and alveolar expansion; type: in vivo, mouse
Description: as §3
The mammary gland was removed and flattened on paraffin paper and fixed in Carnoy's fixative (60% of absolute ethanol, 30% CHCl3, 10% HOAc) for 3 hr. It was subsequently hydrated through a series of solutions with decreasing concentrations of ethanol, and stained in carmine solution (1 g carmine, 2.5 g aluminum potassium sulfate/500 ml of water) overnight. The gland was dehydrated through a series of solutions with increasing ethanol concentrations, 50-100%, washed in xylene twice, and mounted on a slide.

PR = molecular target: T2, PR (Homo sapiens, UniProt P06401); conditions: cited from earlier work
T2 sequence (P06401 1-933): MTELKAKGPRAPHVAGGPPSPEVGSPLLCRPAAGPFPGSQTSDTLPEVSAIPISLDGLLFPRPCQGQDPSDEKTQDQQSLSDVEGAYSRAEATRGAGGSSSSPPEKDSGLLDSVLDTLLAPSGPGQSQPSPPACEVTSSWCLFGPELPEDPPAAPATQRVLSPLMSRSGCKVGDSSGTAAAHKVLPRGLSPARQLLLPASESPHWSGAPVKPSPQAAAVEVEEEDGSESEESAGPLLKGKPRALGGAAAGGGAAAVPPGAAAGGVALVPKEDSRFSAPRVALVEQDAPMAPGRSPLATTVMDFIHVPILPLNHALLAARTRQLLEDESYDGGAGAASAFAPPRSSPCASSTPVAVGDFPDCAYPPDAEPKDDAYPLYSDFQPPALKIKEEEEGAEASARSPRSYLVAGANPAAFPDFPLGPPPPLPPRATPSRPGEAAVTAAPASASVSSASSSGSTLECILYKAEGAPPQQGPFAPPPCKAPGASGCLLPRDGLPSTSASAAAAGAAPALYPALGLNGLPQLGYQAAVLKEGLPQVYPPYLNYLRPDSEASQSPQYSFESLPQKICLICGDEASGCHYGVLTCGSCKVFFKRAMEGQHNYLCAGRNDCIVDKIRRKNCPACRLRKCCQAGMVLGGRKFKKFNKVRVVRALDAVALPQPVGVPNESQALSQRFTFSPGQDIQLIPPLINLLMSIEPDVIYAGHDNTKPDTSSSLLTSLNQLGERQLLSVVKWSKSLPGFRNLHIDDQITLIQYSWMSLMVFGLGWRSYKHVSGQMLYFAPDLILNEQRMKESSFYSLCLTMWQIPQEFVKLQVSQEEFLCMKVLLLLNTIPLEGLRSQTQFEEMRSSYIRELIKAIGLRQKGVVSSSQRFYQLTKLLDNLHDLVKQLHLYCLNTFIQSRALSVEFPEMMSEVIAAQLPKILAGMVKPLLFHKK

[6] = system: BRCA1^Δ11p53^Δ5&6 mammary glands; assay: Immunostaining for cleaved caspase 3 in treated mammary glands; type: in vivo, mouse; conditions: 3 wk or 5 wk post pellet implantation
PR-A [7] = assay: Inhibition of proteasome degradation: PR-A and ERα levels in T47D cells with siLuc or siBRCA1 (western blotting); type: cell-based, human
Description: To further test whether BRCA1 specifically affects PR stability, adenoviral siRNA-mediated knockdown of BRCA1 was introduced to T47D cells. […] In the absence of a ligand, PR-A was very stable and no significant differences were detected between siLuc and siBRCA1 knockdown cells (FIG. 3A, lanes 5, 6). The amount of PR-B was analyzed by immunoprecipitation followed by western blot (FIG. 8). Depletion of BRCA1 by adenoviral siRNA led to PR-A and PR-B accumulation.
as §2

PR-A [8] = assay: Inhibition of proteasome degradation: PR protein level in mouse MECs (western blotting); type: cell-based; conditions: 10 μM MG132 for 4 hr
Description: as §1, §2

Structure (SMILES): CC(=O)[C@H]1CC[C@H]2[C@@H]3CCC4=CC(=O)CC[C@]4(C)[C@H]3CC[C@]12C [progesterone]
BrdU-positive cells per duct ([1]; BRCA1^Δ11p53^Δ5&6 mammary glands): up to 6
BrdU-positive cells in the majority of MECs ([1]; wt or p53^Δ5&6 mammary gland): did not contain BrdU-positive cells

PR-A present at 6 hr post R5020 treatment (PR-A [2]; BRCA1^Δ11p53^Δ5&6 MECs): 90%
half-life of PR-A (PR-A [2]; p53^Δ5&6 MECs): 2.8 h
Structure (SMILES): CCC(=O)[C@@]1(C)CC[C@H]2[C@@H]3CCC4=CC(=O)CCC4=C3CC[C@@]21C [R5020]

Structure (SMILES): CC(=O)O[C@]1(C(C)=O)CC[C@H]2[C@@H]3CCC4=CC(=O)CCC4=C3[C@@H](c3ccc(N(C)C)cc3)C[C@@]21C [CDB-2914, 17α-acetoxy-11β-(4-N,N-dimethylaminophenyl)-19-norpregna-4,9-diene-3,20-dione]
efficacy in tumor prevention (in words) [3]: failed to show any efficacy
inhibition of tumors compared to control implants ([4]; 35 mg time release (60 day) pellet, BRCA1/p53 deficient mice, age 14 weeks, n=4): 100%
mammary tumorigenesis / tumor formation (in words) ([4]; BRCA1/p53 deficient mice): has a preventative effect; also recorded: inhibits mammary tumorigenesis; also recorded: effective in delaying mammary tumors
development of palpable tumors ([4]; two-month-release pellet implanted before 14 weeks of age, n=4): delayed development of palpable tumors
development of palpable tumors ([4]; two-month-release pellet placed after 15 wks): failed to do so
ductal branching of the mammary gland ([5]; Brca1^f/fp53^f/fCrec mouse, 7.0-month-old, 35 mg/60 day pellet at 14-wk-old): inhibits ductal branching
other receptor properties (PR): anti-glucorcorticoid and anti-androgen properties
binding to PR (PR; competitive): high affinity

Structure (SMILES): CC#C[C@]1(O)CC[C@H]2[C@@H]3CCC4=CC(=O)CCC4=C3[C@@H](c3ccc(N(C)C)cc3)C[C@@]21C [mifepristone]
mammary tumorigenesis / tumor formation (in words) ([4]; BRCA1/p53 deficient mice): effective prevention of tumor formation; also recorded: prevents tumorigenesis; also recorded: inhibits mammary tumorigenesis
palpable tumors at 12 months of age ([4]; 35 mg/60 days constant release pellet implanted at 3-4 months, n=14, BRCA1^Δ11p53^Δ5&6 mice): no palpable tumors were detected
side branches of mammary glands ([5]; five weeks of treatment, 35 mg/60-day pellet): substantial reduction
ducts in an approximate area of 0.012 mm^2 ([5]; five weeks of treatment, 35 mg/60-day pellet, placebo 678±49): 33±7 ducts
apoptotic cells (cleaved caspase 3) [6]: few apoptotic cells

Structure (SMILES): CC(C)C[C@@H](C=O)NC(=O)[C@H](CC(C)C)NC(=O)[C@H](CC(C)C)NC(=O)OCc1ccccc1 [MG132] (Cbz-Leu-Leu-Leu-aldehyde)
PR-A density (western blot) (PR-A [7]; control siLuc infected cells, with R5020, 1.0 without MG132): 3.8
PR-A density (western blot) (PR-A [7]; siBRCA1 infected cells, with R5020, 3.2 without MG132): 3.6
ERα stabilization (PR-A [7]; siLuc or siBRCA1 knockdown cells): stabilized to a similar extent
PR-A stabilization (PR-A [8]; BRCA1^Δ11p53^Δ5&6 MECs): not
PR-A stabilization (PR-A [8]; p53^Δ5&6 MECs): stabilized
